Test in all cases: Candida growth inhibition, micro-broth dilution
What all share (format): cell-based
For orientation: Broth dilution looks for growth in wells or tubes with falling amounts of substance.

One test relates to Candida krusei. The arrangement: LogIC50: unit not given here. Particulars: estimate; for Hill-slope: dose-response curve; for IC50 / LogIC50: growth inhibition, 24 hrs, 35° C., ½ strength PDB. As for the experimental part: (§1) The proteins were chemically synthesised by solid phase peptide synthesis at a purity of >90% by (GL Biochem Ltd. Shanghai, People's Republic of China). Post-synthesis, the proteins were stored lyophilised at −20° C. to maintain their integrity. The proteins were weighed and dissolved in ultrapure water as a stock solution prior to experimentation. For all assays a 1:1 dilution was made with double-strength broth, the composition of which was tailored to the specific requirements of the organism.
(§2) Antifungal activity was assessed by a micro-broth dilution method modified by Handcock for cationic peptides and proteins. Given the propensity of cationic peptides and proteins to bind polystyrene, 96-well polypropylene plates were used as an alternative. Candida species MIC analysis were performed using ½ strength potato dextrose broth (PDB).
(§3) 96-well flat-bottomed polypropylene plates were prepared 30 mins prior to inoculation. The outer wells of the plate were filled with 200 μl of diH2O to mitigate evaporation in test lanes during incubation with low volumes and for prolonged periods. Given the high cost of the synthetic proteins minimal volume of 100 μl was utilised, and preliminary testing was conducted in duplicate. 50 μl of ½ strength PDB was dispensed into all remaining wells except column 3. 100 μl was added to column 2 and acting as a ‘broth only’ sterile control. Subsequently, 100 μl of the top standard protein solution, prepared at a 2× concentration (500 μg/ml) and suspended in half-strength PDB, was added to column 3. Using a multichannel pipette, 50 μl from each well in column 3 (rows B through G) were mixed with an equal volume of broth in column 4. This procedure was repeated by serial diluting the protein down to column 10. The final […] was not transferred to lane 11 but was instead disposed of.
(§4) Candida species were grown over 48 hours on ½ strength potato dextrose agar (PDA) at a temperature of 35° C. Cells were harvested directly from the agar plates and resuspended in 2 ml of ½ PDB. The cell concentration was determined using a haemocytometer, and subsequently, cells were diluted to 1×10^5 cells/ml in ½ strength PDB, resulting in a concentration of 5,000 cells per well. 50 μl of the diluted cell suspension was added to the wells in columns 3-11, working backwards from the lowest protein concentration. This step ensured a total volume of 100 μl in each well, giving a final top standard protein concentration of 250 μg/ml in the assay. Column 11 was designated as the growth control, containing cells only.
(§5) Absorbance readings were taken at time zero (T=0) at a wavelength of 595 nm for the analysis of all Candida spp. Subsequently, all plates were incubated at 35° C. for 24 hrs. To ensure uniform resuspension of cells, a multichannel pipette was used to agitate the cell suspension. A second series of absorbance measurements at 595 nm was conducted at T=24, enabling a comprehensive assessment of growth over the 24-hour period).
(§6) The activities of synthetic plant-like defensin analogues Olv1 and Olv2 were assessed against Candida albicans sc5314 (Table 2, FIG. 5A), Candida parapsilosis (Table 3, FIG. 5B), Candida tropicalis (Table 4, FIG. 5C) and Candida krusei (Table 5, FIG. 5D).
(§7) Log IC50: The logarithm of the concentration at which 50% inhibition of growth is observed, Hill-slope: Describes the steepness of the curve; a steeper slope indicates a more cooperative binding to the target and a sharper transition between the non-effective and effective doses and IC50: The actual concentration at which 50% inhibition is achieved, derived from the Log IC50.

In a further test the test system is Candida albicans 5314. The note with it: estimate. Here is the method: as §1, §2, §3, §4, §5, §6, §7
The next test deals with Candida tropicalis. Particulars: estimate; for Hill-slope: dose-response curve. Here is the method: as §1, §2, §3, §4, §5, §6, §7
For a further test, the system named is Candida parapsilosis. Particulars: estimate; for Hill-slope: dose-response curve; for IC50 / LogIC50: growth inhibition, 24 hrs, 35° C., ½ strength PDB. Here is the method:
as §1, §2, §3, §4, §5, §6, §7

The mark [1] stands for this setting: Candida albicans 5314, growth inhibition, 24 hrs, 35° C., ½ strength PDB.
Where [2] appears, read: growth inhibition, 24 hrs, 35° C., ½ strength PDB.

Where no end group is shown, it is not given here.

The values below come from patent US20250257103A1, “Antimicrobial Proteins” (The Olive Feed Corporation Limited, priority 2024, published 2025).

Turning to “RTCESQSHRFKGSCVSKSNCAAVCQTEGFPDGYCRGFRRRCFCSKHC (cysteines drawn unpaired) [Olv1]”, the Hill-slope is recorded as −11.209 with Candida krusei, −9.410 in the test with Candida tropicalis and −3.181 in the test with Candida parapsilosis. For the same sequence, the concentration for half-maximal inhibition (IC50) is 90.642 µg/mL with Candida krusei, 94.113 µg/mL in the test on Candida albicans 5314 (setting [1]) and 56.919 µg/mL with Candida parapsilosis. Moreover, the LogIC50 in the test on Candida krusei was 1.957; in the test with Candida albicans 5314 (setting [1]), 1.974; in the test on Candida tropicalis (setting [2]), 1.602 log10(μg/ml); in the test with Candida parapsilosis, 1.755.
For “RVCSRLSKTWSGLCLNSGNCNRQCRNWEGALRGACHKRGWGFACFCYRKC (cysteines drawn unpaired) [Olv2]”, the Hill-slope was −10.527 with Candida krusei; −11.59 with Candida albicans 5314 (Candida albicans 5314, dose-response curve); −4.862 with Candida tropicalis; −3.474 in the test on Candida parapsilosis. Also, the IC50 is 40.346 µg/mL in the test with Candida krusei, 26.098 µg/mL in the test on Candida tropicalis (setting [2]) and 54.233 µg/mL with Candida parapsilosis. The LogIC50 in the test with Candida krusei is 1.606; with Candida albicans 5314 (setting [1]) it was 1.866; in the test on Candida tropicalis (setting [2]), 1.417 log10(μg/ml); in the test on Candida parapsilosis it was 1.734.

Broadly, the IC50 is the concentration that gives 50% inhibition.
